Results on two molecules are retold here after paper PMC9499463, “Potent Chlorambucil-Platinum(IV) Prodrugs” (International Journal of Molecular Sciences, 2022).

Several values for one entry are separate records, joined by “and”; a condition that tells them apart may be missing. Identical values can stand only once. Like-named read-outs stand apart in the source and are kept apart here.

Data set [1] has as its system non-tumor-derived MCF10A breast line. In words: MTT growth inhibition assay, 72 h. To be noted: Homo sapiens, MCF-10A. In kind it is cell-based, human.
The subject of data set [2] is ADDP ovarian (cisplatin-resistant A2780 clone). Description: MTT growth inhibition assay, 72 h. In kind it is cell-based, human. To be noted: Homo sapiens, Cisplatin-resistant A2780; MTT, 72 h. For orientation: Tetrazolium assays rely on reduction of a dye to a coloured formazan, in cell work by metabolically active cells.
Another data set has as its system panel of cell lines. In words: MTT growth inhibition assay, 72 h, over the cell line panel. To be noted: Homo sapiens. In kind it is cell-based, human.
A further data set deals with HT29 colon cells. In words: ROS detection assay (DCFH-DA fluorescence). To be noted: compounds at GI50 concentration, TBHP and NAC 20 μM. The format is cell-based, human. The protocol: HT29 colon cells were stained by DCFH-DA and then treated with the compounds at each specific GI50 concentration. Upon ROS production, the DCFH-DA produced […], a fluorescent product. The measured fluorescence was, therefore, proportional to the produced ROS. […] 56CLB at 24 h reported 395 RFU, 437 RFU at 48 h, and 558 RFU at 72 h (Table 6, Figure 14 and Figure S42), respectively, showing a significant production of ROS in comparison to control cells. 5CLB at 24 h produced 337 RFU, 324 RFU at 48 h, and 376 RFU at 72 h (Table 6, Figure 14 and Figure S42), respectively.
To investigate for the presence of ROS in treated cells, DCFDA/H2DCFDA-cellular ROS Assay Kit (Abcam, Cambridge, MA, USA) was used, as described. A total of 25,000 cells/mL of HT29 cells in DMEM were seeded in 96-well plates. Cells were washed with 1X kit buffer, then stained with 25 μM 2’,7’-dichlorofluorescein diacetate (DCFH-DA) and incubated for 45 min. DCFH-DA was then removed, and cells were then re-washed with 1X kit buffer, after which phenol red free media was added. Cells were then treated with GI50 drug concentration for each complex. The plates were directly scanned to measure fluorescence (relative fluorescence units (RFU)) at different time points using the Glo-Max®-Multimode microplate reader (Promega Corporation, Alexandra, VIC, Australia) at an excitation/emission of 485/535 nm. To generate the positive control (20 μM tert-butyl hydroperoxide (TBHP)), cells were washed with 1X kit buffer, and stained with DCFDA (25 μM) for 45 min. DCFDA was then removed and TBHP was added in phenol red free media. The plate was scanned to measure the RFU at different time points as mentioned above. The same method applies for the negative control treated with 20 μM N-acetylcysteine (NAC).

The test system of the next data set is A2780 ovarian. Description: MTT growth inhibition assay, 72 h. The format is cell-based, human. To be noted: Homo sapiens, A2780.
For another data set, the system named is U87 glioblastoma. In words: MTT growth inhibition assay, 72 h. The format is cell-based, human. To be noted: Homo sapiens.
In another data set the test system is MIA pancreas. In words: MTT growth inhibition assay, 72 h. The format is cell-based, human. To be noted: Homo sapiens; MTT, 72 h.
For another data set, the system named is Du145 prostate. Description: MTT growth inhibition assay, 72 h. The format is cell-based, human. To be noted: Homo sapiens, DU-145; MTT, 72 h.
Data set [3] has as its system MCF-7 breast. Description: MTT growth inhibition assay, 72 h. The format is cell-based, human. To be noted: Homo sapiens, MCF7; MTT, 72 h.
The test system of another data set is A431 skin. Description: MTT growth inhibition assay, 72 h. To be noted: Homo sapiens, A-431. The format is cell-based, human.
A further data set has as its system BE2-C neuroblastoma. Description: MTT growth inhibition assay, 72 h. In kind it is cell-based, human. To be noted: Homo sapiens, BE(2)-C.
The next data set concerns H460 lung. Description: MTT growth inhibition assay, 72 h. The format is cell-based, human. To be noted: Homo sapiens, NCI-H460.
The nature of data set [4]: Lipophilicity by HPLC (log kw). In kind it is physicochemical. To be noted: chromatographic lipophilicity index, extrapolated to 100% d.i.H2O. The text has this: For lipophilicity measurements, HPLC was utilized instead of the traditional shake-flask method, as described. A few studies have also reported the important and effective use of HPLC to measure the lipophilicity of compounds [66, 67]. Each complex was eluted under several isocratic ratios. A standard curve was then generated to calculate the log value of the capacity factor (log k) according to eqn (1). Following eqn (2), the percentage of organic solvent (CH3CN) in the mobile phase from each isocratic run was plotted against […] (Figure S34). Since log kw is the chromatographic lipophilicity index or measure of lipophilicity of the complex, a higher value corresponds to greater lipophilicity. Since PCLB, 5CLB, and 56CLB are structurally related, there were no significant variations in lipophilicity noted based on the calculated log kw values (Table 4). It is evident that PCLB is the least lipophilic of the group, with a calculated log kw value of 1.80, which is likely due to the absence of methyl groups in its phenanthroline system. 5CLB and 56CLB were the most lipophilic of the group with calculated log kw values of 1.90 and 1.87, respectively, and this is due to the presence of methyl substituents in their phenanthroline systems. […] Additionally, the chromatographic lipophilicity index of CLB was also measured using the abovementioned method, with a calculated log kw of 1.88, which is within the range observed for PCLB, 5CLB, and 56CLB. However, CLB was approximately 1-fold more lipophilic than PCLB. […] The order of increasing lipophilicity is […].
For lipophilicity measurements, analytical HPLC was utilized. Elution profiles were acquired on an Agilent Technologies 1260 Infinity instrument equipped with a Phenomenex Onyx^TM Monolithic C18-reverse phase column (100 × 4.6 mm, 5 µm pore size). The mobile phase consisted of solvents, A (0.06% TFA in d.i.H2O) and B (0.06% TFA in CH3CN/d.i.H2O (90:10)). Potassium iodide was used as an external dead volume marker to determine the dead time of the column. Retention times (TR) were measured at varying isocratic ratios ranging from 42% to 48% of solvent B at 1 mL/min. An injection volume of 10 µL was utilized. Capacity factors were determined according to Equation (1):(1) k=(TR−T0)/T0, where k is the capacity factor, TR is the retention time of the analyte, and T0 represents the dead time. A minimum of four different mobile compositions were used for each complex to calculate k. A linear plot was generated of log k against the concentration of CH3CN in the mobile phase to determine the value of log kw expressed by Equation (2):(2) logk=Sφ+logkw, where S is the slope, φ is the concentration of the CH3CN in the mobile phase and log kw represents the capacity factor of the complex in 100% d.i.H2O. […]

The next data set has as its system SJ-G2 glioblastoma. Description: MTT growth inhibition assay, 72 h. The format is cell-based, human. To be noted: Homo sapiens, SJ-G2.
The test system of a further data set is HT29 colon. Description: MTT growth inhibition assay, 72 h. In kind it is cell-based, human. To be noted: Homo sapiens, HT-29; MTT, 72 h.
Data set [5] relates to MCF-7 breast. To be noted: MCF-7 cell line; read-out: GI50 MCF-7 of prodrug designed by Ma et al.; cited from earlier work.

For orientation: GI50 means the concentration at which growth is held to half of that of the control. Consider `O=C(O)CCCc1ccc(N(CCCl)CCCl)cc1` [CLB, 4-[bis(2-chloroethyl)amino] phenylbutyric acid, reference compound], for which the GI50 in data set [1] is 17 µM; in [2] it was 16 µM; in the data set with panel of cell lines (average over all cell lines tested, read-out: Average GI50 Values) it was 22 µM; in the data set with panel of cell lines (range over the cell lines named in the sentence, read-out: GI50 values ranging (over cell lines)), 4.3 to 40 µM; in the data set with A2780 ovarian it was 4.3 ± 0.0004 µM; with U87 glioblastoma it was 38 µM. Also, the GI50 in the data set with MIA pancreas was 40 µM; with Du145 prostate it was 27 µM; in the data set on MCF-7 breast [3], 11 µM; with A431 skin, 35 µM; in the data set with BE2-C neuroblastoma, 20 µM; with H460 lung, 11 µM. The results for the GI50 with SJ-G2 glioblastoma and in the data set on HT29 colon were 11 µM and 39 µM, respectively. The “ROS Production” value in the data set on HT29 colon cells (24 h) is 110 ± 3 RFU; in the data set with HT29 colon cells (48 h), 190 RFU and 190 ± 5 RFU; in the data set with HT29 colon cells (72 h), 204 ± 4 RFU. The log kw in [4] is 1.88.
Regarding `N.N.O=C([O-])CCCc1ccc(N(CCCl)CCCl)cc1.O=C([O-])CCCc1ccc(N(CCCl)CCCl)cc1.[Cl-].[Cl-].[Pt+4]`, in the data set with MCF-7 breast [5], the GI50 is 2.19 ± 2e-05 µM.
